Calls of active or inactive are those of the source. No cut-off for these calls is given here.
Legend:
[1] = Metabolic stability in human liver microsomes assessed as half life measured upto 60 mins by LC/MS-MS analysis; assay type: ADME, Microsome
[2] = Metabolic stability in rat assessed as intrinsic hepatic clearance by LC/MS-MS analysis; assay type: ADME; conditions: read-out: CLH
Homo sapiens [3] = species: Homo sapiens; assay: Selectivity index, ratio of IC50 for BRD3 BD2 (unknown origin) to IC50 for recombinant human N-terminal His-tagged BRD4 BD1 (44 to 170 residues) expressed in Escherichia coli by AlphaScreen assay
[4] = target: Bromodomain testis-specific protein (Homo sapiens, UniProt Q58F21); assay: Displacement of tetra-acetylated histone H4 peptide (1-21) from BRDT BD1 (unknown origin) incubated for 30 mins followed by further incubation with tetra-acetylated histone H4 peptide (1-21) for 30 mins by Alphascreen assay
[5] = Permeability of compound at 10 uM by PAMPA assay; assay type: ADME; conditions: read-out: permeability
Homo sapiens [6] = species: Homo sapiens; assay: Selectivity ratio of Kd for immobilized DNA-tagged human BRD4 BD1 to Kd for immobilized DNA-tagged human BRD4 BD2 by BROMOscan analysis
[7] = target: Bromodomain-containing protein 4 (Homo sapiens, UniProt O60885); assay: Inhibition of MSU-induced BRD4 expression in human THP1 cells at 1 uM incubated for 1 hr followed by MSU treatment and measured after 12 hrs by Western blot analysis; assay type: cell-based
Rattus norvegicus = assay: In vivo inhibition of MSU-induced NLRP3 inflammasome in synovial tissue of Sprague-Dawley rat model of acute gout arthritis at 1 mg/kg, ia administered 1 hr before MSU challenge and measured upto 24 hrs by immunofluorescence based confocal microscopy analysis; assay type: functional, organism-based

half-life [1]: 14.8 min
CLint scaled [2]: 264 mL/min/kg
Ratio IC50 (Homo sapiens [3]): 568
IC50 [4]: 357 nM
Papp at 10 µM [5]: 0.117 ×10⁻⁶ cm/s
Selectivity ratio (Homo sapiens [6]): 238
inhibition [7]: Active
SMILES: COc1ccccc1S(=O)(=O)Nc1ccc2c3c(cc(-n4cnc(C)c4)nc13)C(=O)N2C
inhibition (Rattus norvegicus): Active

Reference: ChEMBL document CHEMBL4354830, “Discovery of Benzo[cd]indol-2(1H)-ones and Pyrrolo[4,3,2-de]quinolin-2(1H)-ones as Bromodomain and Extra-Terminal Domain (BET) Inhibitors with Selectivity for the First Bromodomain with Potential High Efficiency against Acute Gouty Arthritis” (J Med Chem, 2019)
